Cc1cc(C(=O)NS(=O)(=O)c2ccc(Cl)s2)nc2c1nc(C)n2Cc1ccc2ccccc2c1Br [Example 104-6, 3-(1-bromonaphthalen-2-ylmethyl)-2,7-dimethyl-5-((5-chlorothiophen-2-yl)sulfonylcarbamoyl)-3H-imidazo[4,5-b]pyridine] gave a melting point of 213 to 214 °C.

Molecule Cc1nc2ccc(C(=O)NS(=O)(=O)c3ccccc3)nc2n1Cc1ccc(Cl)cc1Br [Example 13-2, 5-(benzenesulfonylcarbamoyl)-3-(2-bromo-4-chlorobenzyl)-2-methyl-3H-imidazo[4,5-b]pyridine] has a melting point of 189 to 190 °C.

In the case of CCc1c(Cc2ccc(Cl)cc2Cl)sc2c(C(=O)NS(=O)(=O)c3ccccc3)cccc12 [Example 38-2, 7-(benzenesulfonylcarbamoyl)-2-(2,4-dichlorobenzyl)-3-ethylbenzo[b]thiophene], the melting point is reported as 181 to 183 °C.

With CCCCCS(=O)(=O)NC(=O)c1cnc2nc(C)n(Cc3ccc(Cl)cc3Cl)c2c1 [Example 25, 1-(2,4-dichlorobenzyl)-2-methyl-6-(n-pentanesulfonylcarbamoyl)-1H-imidazo[4,5-b]pyridine] the melting point was 103 to 106 °C.

CCCCCS(=O)(=O)NC(=O)c1ccc2c(=O)nc(C)n(Cc3ccc(Cl)cc3Cl)c2c1 [Example 47-1, 1-(2,4-dichlorobenzyl)-2-methyl-7-(1-n-pentanesulfonylcarbamoyl)-4(1H)-quinazolinone] gave a melting point of 168 to 170 °C.

CCCCCS(=O)(=O)NC(=O)c1cc(C)cc2c(C)c(Cc3ccc(Cl)cc3Cl)oc12 [Example 31-1, 2-(2,4-dichlorobenzyl)-3,5-dimethyl-7-(1-n-pentanesulfonylcarbamoyl)benzo[b]furan] showed a melting point of 164 to 165.5 °C.

In the case of Cc1nc2ccc(C(=O)NS(=O)(=O)c3ccccc3)nc2n1Cc1ccc(/C=C/c2ccccc2)cc1Cl [Example 76, (E)-5-(benzenesulfonylcarbamoyl)-3-(2-chloro-4-(2-phenylethenyl)benzyl)-2-methyl-3H-imidazo[4,5-b]pyridine], the melting point is reported as 262 to 263 °C.

In the case of CCCCS(=O)(=O)NC(=O)c1ccc2c(c1)n(Cc1ccc(Cl)cc1Cl)c(=O)c(=O)n2C [Example 50, 7-(1-n-butanesulfonyl-carbamoyl)-1-(2,4-dichlorobenzyl)-4-methyl-2,3-(1H, 4H)-quinoxalinedione], the melting point is reported as 243 to 246 °C.

Cc1oc2ccc(C(=O)NS(=O)(=O)c3ccccc3)cc2c1Cc1ccc(Cl)cc1Cl [Example 30-2, 5-(benzenesulfonylcarbamoyl)-3-(2,4-dichlorobenzyl)-2-methylbenzo[b]furan] gave a melting point of 208.5 to 209.5 °C.

Work on CCc1ccc(Cn2c(C)nc3ccc(C(=O)NS(=O)(=O)c4ccccc4)nc32)c(Cl)c1 [Example 70-2, 5-(benzenesulfonylcarbamoyl)-3-(2-chloro-4-ethylbenzyl)-2-methyl-3H-imidazo[4,5-b]pyridine] yielded a melting point of 167 to 168 °C.

Molecule CCOC(=O)c1ccc(Cn2c(C)nc3ccc(C(=O)NS(=O)(=O)c4ccccc4)nc32)c(Cl)c1 [Example 119, 5-(benzenesulfonylcarbamoyl)-3-(2-chloro-4-(ethoxycarbonyl)benzyl)-2-methyl-3H-imidazo[4,5-b]pyridine] has a melting point of 196 to 197 °C.

CCCCS(=O)(=O)NC(=O)c1ccc2nc(C)n(Cc3ccc(Cl)cc3Br)c2n1 [Example 13-3, 3-(2-bromo-4-chlorobenzyl)-5-(n-butanesulfonylcarbamoyl)-2-methyl-3H-imidazo[4,5-b]pyridine] gave a melting point of 145 to 146 °C.

Molecule Cc1[nH]c2ccc(C(=O)NS(=O)(=O)c3ccccc3)nc2c1Cc1ccc(Cl)cc1Cl [Example 26-2, 3-(2,4-dichlorobenzyl)-2-methyl-5-(benzenesulfonylcarbamoyl)pyrrolo[3,2-b]pyridine] has a melting point greater than 250 °C.

Molecule Cc1cc(C(=O)NS(=O)(=O)c2ccc(Br)s2)nc2c1nc(C)n2Cc1ccc(-c2ccccc2)cc1Cl [Example 186, 5-[(5-bromothiophen-2-yl)sulfonylcarbamoyl]-3-(2-chloro-4-phenylbenzyl)-2,7-dimethyl-3H-imidazo[4,5-b]pyridine] has a melting point of 243 to 244 °C.

In the case of CCCCS(=O)(=O)NC(=O)c1ccc2c(=O)n(Cc3ccc(Cl)cc3Cl)cnc2c1 [Example 44, 7-(1-n-butanesulfonyl-carbamoyl)-3-(2,4-dichlorobenzyl)-4(3H)-quinazolinone], the melting point is reported as 245 to 247 °C.

With Cc1nc2ccc(C(=O)NS(=O)(=O)c3ccccc3)nc2n1Cc1ccc([S+](C)[O-])cc1Cl (stereo not drawn) [Example 84, 5-(benzenesulfonylcarbamoyl)-3-(2-chloro-4-(methylsulfinyl)benzyl)-2-methyl-3H-imidazo[4,5-b]pyridine] the melting point was 230 to 231 °C.

CCCCCS(=O)(=O)NC(=O)c1cc(C)c2nc(C)n(Cc3ccc(-c4ccccc4)cc3Cl)c2n1 [Example 184, 3-(2-chloro-4-phenylbenzyl)-2,7-dimethyl-5-(1-pentanesulfonylcarbamoyl)-3H-imidazo[4,5-b]pyridine] showed a melting point of 227 to 228 °C.

CCCCCS(=O)(=O)NC(=O)c1ccc2nc(C)n(Cc3ccc(Cl)cc3Br)c2n1 [Example 13-1, 3-(2-bromo-4-chlorobenzyl)-2-methyl-5-(n-pentanesulfonylcarbamoyl)-3H-imidazo[4,5-b]pyridine] gave a melting point of 167 to 168 °C.

In the case of CNC(=O)c1ccc(Cn2c(C)nc3ccc(C(=O)NS(=O)(=O)c4ccccc4)nc32)c(Cl)c1 [Example 120, 5-(Benzenesulfonylcarbamoyl)-3-(2-chloro-4-(methylcarbamoyl)benzyl)-2-methyl-3H-imidazo[4,5-b]pyridine], the melting point is reported as 257 to 260 °C.

Work on CCCCCS(=O)(=O)NC(=O)c1cc(C)c2nc(CC)n(Cc3ccc(-c4ccccc4)cc3)c2n1 [Example 16, 2-ethyl-7-methyl-5-(n-pentanesulfonylcarbamoyl)-3-(4-phenylbenzyl)-3H-imidazo[4,5-b]pyridine] yielded a melting point of 210 to 211 °C.

In the case of Cc1nc2ccc(C(=O)NS(=O)(=O)c3ccc(Cl)s3)nc2n1Cc1ccc(Cl)cc1Cl [Example 65-4, 5-((5-chlorothiophene-2-yl)sulfonylcarbamoyl)-3-(2,4-dichlorobenzyl)-2-methyl-3H-imidazo[4,5-b]pyridine], the melting point is reported as 206 to 207 °C.

C=Cc1ccc(Cn2c(C)nc3ccc(C(=O)NS(=O)(=O)c4ccccc4)nc32)c(Cl)c1 [Example 71, 5-(benzenesulfonylcarbamoyl)-3-(2-chloro-4-vinylbenzyl)-2-methyl-3H-imidazo[4,5-b]pyridine] showed a melting point of 174 to 175 °C.

Molecule CCCCCS(=O)(=O)NC(=O)c1ccc2nc(C)n(Cc3ccc4ccccc4c3Br)c2n1 [Example 10, 3-(1-bromo-2-naphthyl)methyl-2-methyl-5-(n-pentanesulfonylcarbamoyl)-3H-imidazo[4,5-b]pyridine] has a melting point of 200 to 201 °C.

In the case of CCCCS(=O)(=O)NC(=O)c1ccc2c(c1)CN(Cc1ccc(Cl)cc1Cl)C(C)=N2.Cl, the melting point is reported as 258 °C (dec.).

Cc1nc2ccc(C(=O)NS(=O)(=O)c3ccc(Br)s3)nc2n1Cc1ccc(C(F)(F)F)cc1Cl [Example 109-4, 5-((5-bromothiophen-2-yl)sulfonylcarbamoyl)-3-(2-chloro-4-(trifluoromethyl)benzyl)-2-methyl-3H-imidazo[4,5-b]pyridine] showed a melting point of 172 to 173 °C.

Work on CCCCCS(=O)(=O)NC(=O)c1ccc2[nH]c(C)c(Cc3ccc(Cl)cc3Cl)c2n1 [Example 26-1, 3-(2,4-dichlorobenzyl)-2-methyl-5-(n-pentanesulfonylcarbamoyl)pyrrolo[3,2-b]pyridine] yielded a melting point of 147 to 148 °C.

Molecule CSc1ccc(Cn2c(C)nc3ccc(C(=O)NS(=O)(=O)c4ccc(Cl)s4)nc32)c(Cl)c1 [Example 149, 3-(2-chloro-4-(methylthio)benzyl)-5-[(5-chlorothiophen-2-yl)sulfonylcarbamoyl]-2-methyl-3H-imidazo[4,5-b]pyridine] has a melting point of 170 to 171 °C.

Work on CCCCCc1ccc(Cn2c(C)nc3ccc(C(=O)NS(=O)(=O)c4ccccc4)nc32)c(Cl)c1 [Example 73, 5-(benzenesulfonylcarbamoyl)-3-(2-chloro-4-(n-pentyl)benzyl)-2-methyl-3H-imidazo[4,5-b]pyridine] yielded a melting point of 174 to 175 °C.

With CCCCCS(=O)(=O)NC(=O)c1ccc2c(c1)N(Cc1ccc(Cl)cc1Cl)C(C)=NC2.Cl the melting point was 184 to 186 °C.

Work on Cc1nc2ccc(C(=O)NS(=O)(=O)c3ccccc3)nc2n1Cc1ccc(C(=O)O)cc1Cl [Example 116, 5-(benzenesulfonylcarbamoyl)-3-(4-carboxy-2-chlorobenzyl)-2-methyl-3H-imidazo[4,5-b]pyridine] yielded a melting point of 155 to 160 °C.

With COc1ccc(Cn2c(C)nc3ccc(C(=O)NS(=O)(=O)c4ccccc4)nc32)c(Cl)c1 [Example 78, 5-(benzenesulfonylcarbamoyl)-3-(2-chloro-4-methoxybenzyl)-2-methyl-3H-imidazo[4,5-b]pyridine] the melting point was 151 to 152 °C.

For Cc1nc2ccc(C(=O)NS(=O)(=O)c3ccccc3)nc2n1Cc1ccc(C=O)cc1Cl [Example 92, 5-(benzenesulfonylcarbamoyl)-3-(2-chloro-4-formylbenzyl)-2-methyl-3H-imidazo[4,5-b]pyridine], the melting point was 253 to 255 °C.

For Cc1cc(C(=O)NS(=O)(=O)c2ccc(Cl)s2)nc2c1nc(C)n2Cc1ccc(Br)cc1Cl [Example 106-3, 3-(4-bromo-2-chlorobenzyl)-5-[(5-chlorothiophen-2-yl)sulfonylcarbamoyl]-2,7-dimethyl-3H-imidazo[4,5-b]pyridine], the melting point was 214 to 215 °C.

For CCCCCS(=O)(=O)NC(=O)c1ccc2nc(C)n(Cc3ccc(-c4ccccc4)cc3Cl)c2n1 [Example 9, 3-(2-chloro-4-phenylbenzyl)-2-methyl-5-(n-pentanesulfonylcarbamoyl)-3H-imidazo[4,5-b]pyridine], the melting point was 155 to 156 °C.

Cc1nc2ccc(C(=O)NS(=O)(=O)c3ccccc3)nc2n1Cc1ccc(Cl)cc1Cl [Example 8-3, 5-benzenesulfonylcarbamoyl-3-(2,4-dichlorobenzyl)-2-methyl-3H-imidazo[4,5-b]pyridine] showed a melting point of 193 to 194 °C.

For Cc1nc2ccc(C(=O)NS(=O)(=O)c3ccccc3)nc2n1Cc1ccc(-c2ccc(Cl)s2)cc1Cl [Example 69, 5-(benzenesulfonylcarbamoyl)-3-[2-chloro-4-(5-chlorothiophene-2-yl)benzyl]-2-methyl-3H-imidazo[4,5-b]pyridine], the melting point was 215 to 217 °C.
